In ChEMBL document CHEMBL1153129, “Multiple bond-conjugated photoinduced nitric oxide releaser working with two-photon excitation” (Bioorg Med Chem Lett, 2010):

Columns and labels:
[1] = Induction of NO release per molar ratio of compound at 250 uM irradiated with 400 to 440 nm light in presence of Fe-DETC complex by ESR spectrometry; assay type: physicochemical
[2] = Induction of NO release per molar ratio of compound at 250 uM irradiated with 450 to 480 nm light in presence of Fe-DETC complex by ESR spectrometry; assay type: physicochemical

Activity [1] [%]	Activity [2] [%]	SMILES
9.2		COc1cc(/C=C/c2cc(C)c([N+](=O)[O-])c(C)c2)c(OC)cc1C#Cc1cc(OC)c(/C=C/c2cc(C)c([N+](=O)[O-])c(C)c2)cc1OC
1	0.86	COc1cc(/C=C/c2cc(OC)c(/C=C/c3cc(C)c([N+](=O)[O-])c(C)c3)cc2OC)c(OC)cc1/C=C/c1cc(C)c([N+](=O)[O-])c(C)c1
9.7		COc1cc(/C=C/c2cc(C)c([N+](=O)[O-])c(C)c2)c(OC)cc1C#CC#Cc1cc(OC)c(/C=C/c2cc(C)c([N+](=O)[O-])c(C)c2)cc1OC
0.96	0.54	COc1cc(/C=C/c2cc(C)c([N+](=O)[O-])c(C)c2)c(OC)cc1/C=C/C=C/c1cc(OC)c(/C=C/c2cc(C)c([N+](=O)[O-])c(C)c2)cc1OC
